Columns and labels:
Experiment in all cases: relative viability (nuclei count vs DMSO), 5 days (fraction); higher = more cells survive
ALW-II-49-7 + Linsitinib = compound: Cc1ccc(C(=O)Nc2cccc(C(F)(F)F)c2)cc1Nc1cncc(C(N)=O)c1 [ALW-II-49-7] + C[C@]1(O)C[C@@H](c2nc(-c3ccc4ccc(-c5ccccc5)nc4c3)c3c(N)nccn32)C1 [Linsitinib] (partner 1 µM)
Summary of the method: (§1)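 Relative viability equals treated-well nuclei counts divided by vehicle-well nuclei counts. Counts came from 4× images of lung cancer cell lines grown in 1536-well plates for 5 days after pin-tool dosing on the day after seeding. Dosing used one drug alone or a fixed anchor-drug dose plus five library-drug doses (not always all listed) in √10 steps, and values are medians of duplicate plates.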

Dasatinib + Navitoclax = compound: Cc1nc(Nc2ncc(C(=O)Nc3c(C)cccc3Cl)s2)cc(N2CCN(CCO)CC2)n1 [Dasatinib] + CC1(C)CCC(c2ccc(Cl)cc2)=C(CN2CCN(c3ccc(C(=O)NS(=O)(=O)c4ccc(N[C@H](CCN5CCOCC5)CSc5ccccc5)c(S(=O)(=O)C(F)(F)F)c4)cc3)CC2)C1 [Navitoclax] (partner 0.5 µM)
Summary of the method: as §1

XMD13-2 + Bortezomib = compound: C1CC1C(=O)NC2=NNC3=C2C=CC(=C3)C4=CC(=CC=C4)C(=O)NC5CC5 [XMD13-2] + CC(C)C[C@H](NC(=O)[C@H](Cc1ccccc1)NC(=O)c1cnccn1)B(O)O [Bortezomib] (partner 0.002 µM)
Summary of the method: as §1

XMD13-2 + AZD7762 = compound: C1CC1C(=O)NC2=NNC3=C2C=CC(=C3)C4=CC(=CC=C4)C(=O)NC5CC5 [XMD13-2] + NC(=O)Nc1cc(-c2cccc(F)c2)sc1C(=O)N[C@H]1CCCNC1 [AZD7762] (partner 0.2 µM)
Summary of the method: as §1

| Cell Line | relative viability (ALW-II-49-7 + Linsitinib; first compound 0.08 µM) | relative viability (ALW-II-49-7 + Linsitinib; first compound 0.253 µM) | relative viability (ALW-II-49-7 + Linsitinib; first compound 0.8 µM) | relative viability (ALW-II-49-7 + Linsitinib; first compound 2.53 µM) | relative viability (ALW-II-49-7 + Linsitinib; first compound 8 µM) | relative viability (Dasatinib + Navitoclax; first compound 0.005 µM) | relative viability (Dasatinib + Navitoclax; first compound 0.01581 µM) | relative viability (Dasatinib + Navitoclax; first compound 0.05 µM) | relative viability (Dasatinib + Navitoclax; first compound 0.1581 µM) | relative viability (Dasatinib + Navitoclax; first compound 0.5 µM) | relative viability (XMD13-2 + Bortezomib; first compound 0.05 µM) | relative viability (XMD13-2 + Bortezomib; first compound 0.1581 µM) | relative viability (XMD13-2 + Bortezomib; first compound 0.5 µM) | relative viability (XMD13-2 + Bortezomib; first compound 1.581 µM) | relative viability (XMD13-2 + Bortezomib; first compound 5 µM) | relative viability (XMD13-2 + AZD7762; first compound 0.05 µM) | relative viability (XMD13-2 + AZD7762; first compound 0.1581 µM) | relative viability (XMD13-2 + AZD7762; first compound 0.5 µM) | relative viability (XMD13-2 + AZD7762; first compound 1.581 µM) | relative viability (XMD13-2 + AZD7762; first compound 5 µM) |
| --- | --- | --- | --- | --- | --- | --- | --- | --- | --- | --- | --- | --- | --- | --- | --- | --- | --- | --- | --- | --- |
| A549 | 0.654 | 0.511 | 0.551 | 0.263 | 0.481 | 1.27 | 1.2 | 1.27 | 1.06 | 0.443 |  |  |  |  |  |  |  |  |  |  |
| COR-L23 | 0.947 | 0.829 | 0.769 | 0.953 | 0.957 | 1.01 | 0.85 | 0.797 | 0.55 | 0.347 | 1.12 | 0.994 | 1.04 | 1.08 | 1.09 |  |  |  |  |  |
| COR-L 105 | 0.884 | 0.848 | 0.824 | 0.745 | 0.752 | 0.588 | 0.49 | 0.52 | 0.368 | 0.278 | 1.06 | 0.953 | 0.737 | 0.905 | 0.75 |  |  |  |  |  |
| Calu-6 | 0.987 | 0.847 | 0.903 | 0.881 | 0.852 | 0.762 | 0.759 | 0.646 | 0.571 | 0.589 | 1 | 1.04 | 1.1 | 0.871 | 0.789 |  |  |  |  |  |
| EBC-1 | 0.83 | 0.784 | 0.358 | 0.856 | 0.391 | 0.477 | 0.289 | 0.314 | 0.25 | 0.283 | 0.61 | 0.523 | 0.552 | 0.531 | 0.299 |  |  |  |  |  |
| IA-LM | 0.627 | 0.342 | 0.378 | 0.449 | 0.135 | 0.878 | 0.923 | 1.04 | 0.876 | 0.665 | 0.907 | 0.79 | 0.825 | 0.829 | 0.398 |  |  |  |  |  |
| LK-2 | 0.546 | 0.722 | 0.399 |  | 0.654 | 0.782 | 0.594 | 0.373 | 0.292 | 0.245 |  |  |  |  |  | 0.626 | 0.499 | 0.476 | 0.431 | 0.689 |
| NCI-H358 | 0.801 | 0.661 | 0.816 | 0.725 | 0.742 |  |  |  |  |  |  |  |  |  |  | 0.633 | 0.537 | 0.515 | 0.442 | 0.414 |
| NCI-H520 | 0.779 | 1.04 |  | 1.16 | 0.951 | 0.946 | 0.644 | 0.555 | 0.273 | 0.27 | 0.978 | 0.802 | 0.66 | 0.329 | 0.365 |  |  |  |  |  |
| NCI-H522 |  |  |  |  |  |  |  |  |  |  |  |  |  |  |  | 1.08 | 0.728 | 0.7 | 0.737 | 0.692 |
| NCI-H661 | 0.631 | 0.534 | 0.493 |  | 0.536 |  |  |  |  |  | 0.86 | 0.805 | 0.846 | 0.626 | 0.587 |  |  |  |  |  |
| NCI-H1299 | 1.02 | 1.05 | 0.696 | 0.721 | 0.423 | 1.04 | 1.05 | 1.1 | 0.6 | 0.31 | 1.02 | 1.05 | 1.05 | 1.05 | 1.11 |  |  |  |  |  |
| NCI-H1563 | 1.18 | 1.18 | 1.31 | 1.34 | 1.22 |  |  |  |  |  | 0.949 | 0.908 | 0.816 | 0.764 | 0.86 |  |  |  |  |  |
| NCI-H1648 |  |  |  |  |  |  |  |  |  |  |  |  |  |  |  | 0.604 |  | 0.564 | 0.633 | 0.565 |
| NCI-H1650 |  |  |  |  |  | 1.26 | 0.934 | 0.83 | 0.506 | 0.387 | 0.22 | 0.201 | 0.198 | 0.195 | 0.191 |  |  |  |  |  |
| NCI-H2009 | 1.21 | 1.12 | 1.09 | 1.02 | 1 | 1.23 | 1.12 | 1.3 | 0.761 | 0.235 | 1.05 | 1.12 | 1.4 | 1.02 | 1.01 |  |  |  |  |  |
| NCI-H2023 | 0.653 | 0.579 | 0.697 | 0.679 | 0.645 | 0.978 | 0.854 | 0.795 | 0.778 | 0.488 | 1.16 | 0.928 | 1.06 | 0.986 | 0.983 |  |  |  |  |  |
| NCI-H2170 |  |  |  |  |  | 0.545 | 0.473 | 0.572 | 0.267 | 0.232 |  |  |  |  |  | 0.957 | 1 | 1 | 0.884 | 0.859 |
| NCI-H2228 | 1.17 | 0.677 | 0.8 | 0.644 | 0.611 | 0.845 | 0.644 | 1.44 | 0.475 | 0.249 | 1.48 | 1.16 | 1 | 1 | 0.872 |  |  |  |  |  |
| NCI-H2342 |  |  |  |  |  |  |  |  |  |  |  |  |  |  |  | 0.494 | 0.566 | 0.516 | 0.455 | 0.598 |
| SK-LU-1 | 1.03 | 1.22 | 1.19 | 0.953 | 0.793 | 0.812 | 0.57 | 0.301 | 0.226 | 0.154 | 1.26 | 1.41 | 1.1 | 0.764 | 1.15 |  |  |  |  |  |
| SK-MES-1 | 1.03 | 1.14 | 1.13 | 0.952 | 0.901 | 1.18 |  | 1.41 | 0.802 | 0.429 |  |  |  |  |  |  |  |  |  |  |
| SW 900 |  |  |  |  |  |  |  |  |  |  |  |  |  |  |  | 0.741 | 0.587 | 0.679 | 0.467 | 0.835 |
| SW 1573 | 0.867 | 0.906 | 0.903 | 0.795 | 0.768 | 0.906 | 0.899 | 0.946 | 0.473 | 0.481 | 0.974 | 1.03 | 1.03 | 0.977 | 0.947 |  |  |  |  |  |
